{
  "source": "ChEMBL document CHEMBL3400036",
  "about": "“Novel 4-substituted-N,N-dimethyltetrahydronaphthalen-2-amines: synthesis, affinity, and in silico docking studies at serotonin 5-HT2-type and histamine H1 G protein-coupled receptors” (Bioorg Med Chem, 2015)",
  "format_in_all_cases": "cell-based",
  "key": {"[1]": {"target": "5-hydroxytryptamine receptor 2A (Homo sapiens, UniProt P28223)", "sequence (P28223 whole entry)": "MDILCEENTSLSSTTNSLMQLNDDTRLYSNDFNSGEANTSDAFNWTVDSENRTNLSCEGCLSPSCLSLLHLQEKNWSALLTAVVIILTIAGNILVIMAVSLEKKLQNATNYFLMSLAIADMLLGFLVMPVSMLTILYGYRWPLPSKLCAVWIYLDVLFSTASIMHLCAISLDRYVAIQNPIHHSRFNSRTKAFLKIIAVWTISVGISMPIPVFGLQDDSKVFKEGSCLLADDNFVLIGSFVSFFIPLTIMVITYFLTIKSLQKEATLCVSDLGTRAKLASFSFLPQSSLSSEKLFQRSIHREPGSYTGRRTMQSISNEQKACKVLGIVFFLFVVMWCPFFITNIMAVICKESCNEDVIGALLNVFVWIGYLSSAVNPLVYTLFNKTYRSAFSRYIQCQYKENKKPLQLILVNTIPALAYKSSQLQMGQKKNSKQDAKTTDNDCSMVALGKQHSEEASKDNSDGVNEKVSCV", "assay": "Displacement of [3H]Ketanserin from human 5-HT2A receptor expressed in HEK293 cells by scintillation counting analysis"}, "[2]": {"target": "5-hydroxytryptamine receptor 2B (Homo sapiens, UniProt P41595)", "sequence (P41595 whole entry)": "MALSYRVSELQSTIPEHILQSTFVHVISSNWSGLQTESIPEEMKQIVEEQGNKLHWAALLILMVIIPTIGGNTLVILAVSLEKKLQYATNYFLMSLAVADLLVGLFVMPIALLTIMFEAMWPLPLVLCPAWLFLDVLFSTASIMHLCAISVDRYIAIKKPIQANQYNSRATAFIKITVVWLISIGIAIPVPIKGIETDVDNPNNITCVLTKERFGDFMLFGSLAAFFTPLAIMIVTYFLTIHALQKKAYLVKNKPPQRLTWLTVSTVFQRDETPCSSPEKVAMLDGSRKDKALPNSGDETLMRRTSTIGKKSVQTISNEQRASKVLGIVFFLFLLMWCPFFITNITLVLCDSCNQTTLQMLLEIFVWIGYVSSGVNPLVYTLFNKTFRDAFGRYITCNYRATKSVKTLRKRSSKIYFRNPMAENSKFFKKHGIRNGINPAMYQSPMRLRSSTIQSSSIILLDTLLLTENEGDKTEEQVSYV", "assay": "Displacement of [3H]Mesulergine from human 5-HT2B receptor expressed in HEK293 cells by scintillation counting analysis"}, "[3]": {"target": "T1, 5-hydroxytryptamine receptor 2C (Homo sapiens, UniProt P28335)", "T1 sequence (P28335 whole entry)": "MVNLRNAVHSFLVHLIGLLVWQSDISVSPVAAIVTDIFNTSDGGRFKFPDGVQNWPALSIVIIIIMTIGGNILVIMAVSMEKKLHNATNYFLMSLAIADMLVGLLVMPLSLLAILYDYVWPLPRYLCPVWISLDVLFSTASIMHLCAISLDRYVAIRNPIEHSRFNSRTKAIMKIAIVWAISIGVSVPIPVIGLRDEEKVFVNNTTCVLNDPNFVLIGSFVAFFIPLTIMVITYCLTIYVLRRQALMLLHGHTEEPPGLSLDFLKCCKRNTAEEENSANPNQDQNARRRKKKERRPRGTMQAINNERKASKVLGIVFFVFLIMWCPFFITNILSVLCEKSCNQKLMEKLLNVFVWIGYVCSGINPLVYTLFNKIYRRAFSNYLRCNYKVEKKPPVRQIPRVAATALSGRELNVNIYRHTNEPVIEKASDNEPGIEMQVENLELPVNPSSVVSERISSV", "assay": "Displacement of [3H]Mesulergine from human 5-HT2C-INI receptor expressed in HEK293 cells by scintillation counting analysis"}},
  "data": [
    {"smiles": "CN(C)[C@@H]1Cc2ccccc2[C@@H](c2ccccc2)C1", "values": [
      {"measurement": "Ki", "setting": "[1]", "result": 100, "unit": "nM"},
      {"measurement": "Ki", "setting": "[2]", "result": 94, "unit": "nM"}
    ]},
    {"smiles": "CN(C)[C@H]1Cc2ccccc2[C@H](C2CCCCCCC2)C1", "values": [
      {"measurement": "Ki", "setting": "[2]", "result": 40, "unit": "nM"}
    ]},
    {"smiles": "CN(C)[C@@H]1Cc2ccccc2[C@@H](C2CCCCC2)C1", "values": [
      {"measurement": "Ki", "setting": "[1]", "result": 20, "unit": "nM"},
      {"measurement": "Ki", "setting": "[2]", "result": 20, "unit": "nM"},
      {"measurement": "Ki", "setting": "[3]", "result": 7, "unit": "nM"}
    ]},
    {"smiles": "CN(C)[C@H]1Cc2ccccc2[C@H](C2CCCCC2)C1", "values": [
      {"measurement": "Ki", "setting": "[1]", "result": 80, "unit": "nM"},
      {"measurement": "Ki", "setting": "[2]", "result": 170, "unit": "nM"},
      {"measurement": "Ki", "setting": "[3]", "result": 30, "unit": "nM"}
    ]},
    {"smiles": "CN(C)[C@@H]1Cc2ccccc2[C@@H](c2ccccc2Br)C1", "values": [
      {"measurement": "Ki", "setting": "[1]", "result": 1100, "unit": "nM"},
      {"measurement": "Ki", "setting": "[2]", "result": 650, "unit": "nM"},
      {"measurement": "Ki", "setting": "[3]", "result": 70, "unit": "nM"}
    ]},
    {"smiles": "CN(C)[C@H]1Cc2ccccc2[C@H](c2ccccc2Br)C1", "values": [
      {"measurement": "Ki", "setting": "[1]", "result": 760, "unit": "nM"},
      {"measurement": "Ki", "setting": "[2]", "result": 4100, "unit": "nM"},
      {"measurement": "Ki", "setting": "[3]", "result": 78, "unit": "nM"}
    ]},
    {"smiles": "CN(C)[C@H]1Cc2ccccc2[C@H](c2ccc(C(F)(F)F)cc2)C1", "values": [
      {"measurement": "Ki", "setting": "[2]", "result": 250, "unit": "nM"}
    ]},
    {"smiles": "CN(C)[C@@H]1Cc2ccccc2[C@@H](c2ccc(Br)cc2)C1", "values": [
      {"measurement": "Ki", "setting": "[1]", "result": 220, "unit": "nM"},
      {"measurement": "Ki", "setting": "[2]", "result": 210, "unit": "nM"},
      {"measurement": "Ki", "setting": "[3]", "result": 100, "unit": "nM"}
    ]},
    {"smiles": "CN(C)[C@H]1Cc2ccccc2[C@H](c2ccc(Br)cc2)C1", "values": [
      {"measurement": "Ki", "setting": "[1]", "result": 60, "unit": "nM"},
      {"measurement": "Ki", "setting": "[2]", "result": 30, "unit": "nM"},
      {"measurement": "Ki", "setting": "[3]", "result": 70, "unit": "nM"}
    ]},
    {"smiles": "CN(C)[C@@H]1Cc2ccccc2[C@@H](c2ccc(Cl)cc2)C1", "values": [
      {"measurement": "Ki", "setting": "[1]", "result": 250, "unit": "nM"},
      {"measurement": "Ki", "setting": "[2]", "result": 300, "unit": "nM"},
      {"measurement": "Ki", "setting": "[3]", "result": 120, "unit": "nM"}
    ]},
    {"smiles": "CN(C)[C@H]1Cc2ccccc2[C@H](c2ccc(Cl)cc2)C1", "values": [
      {"measurement": "Ki", "setting": "[1]", "result": 50, "unit": "nM"},
      {"measurement": "Ki", "setting": "[2]", "result": 80, "unit": "nM"},
      {"measurement": "Ki", "setting": "[3]", "result": 55, "unit": "nM"}
    ]},
    {"smiles": "CN(C)[C@@H]1Cc2ccccc2[C@@H](c2ccc(F)cc2)C1", "values": [
      {"measurement": "Ki", "setting": "[1]", "result": 140, "unit": "nM"},
      {"measurement": "Ki", "setting": "[2]", "result": 400, "unit": "nM"},
      {"measurement": "Ki", "setting": "[3]", "result": 68, "unit": "nM"}
    ]},
    {"smiles": "CN(C)[C@H]1Cc2ccccc2[C@H](c2ccc(F)cc2)C1", "values": [
      {"measurement": "Ki", "setting": "[1]", "result": 71, "unit": "nM"},
      {"measurement": "Ki", "setting": "[2]", "result": 66, "unit": "nM"},
      {"measurement": "Ki", "setting": "[3]", "result": 75, "unit": "nM"}
    ]},
    {"smiles": "CN(C)[C@@H]1Cc2ccccc2[C@@H](c2cccc([N+](=O)[O-])c2)C1", "values": [
      {"measurement": "Ki", "setting": "[1]", "result": 74, "unit": "nM"},
      {"measurement": "Ki", "setting": "[2]", "result": 70, "unit": "nM"},
      {"measurement": "Ki", "setting": "[3]", "result": 10, "unit": "nM"}
    ]},
    {"smiles": "CN(C)[C@H]1Cc2ccccc2[C@H](c2cccc([N+](=O)[O-])c2)C1", "values": [
      {"measurement": "Ki", "setting": "[1]", "result": 500, "unit": "nM"},
      {"measurement": "Ki", "setting": "[2]", "result": 20, "unit": "nM"},
      {"measurement": "Ki", "setting": "[3]", "result": 120, "unit": "nM"}
    ]},
    {"smiles": "CN(C)[C@@H]1Cc2ccccc2[C@@H](c2cccc(C(F)(F)F)c2)C1", "values": [
      {"measurement": "Ki", "setting": "[1]", "result": 80, "unit": "nM"},
      {"measurement": "Ki", "setting": "[2]", "result": 60, "unit": "nM"},
      {"measurement": "Ki", "setting": "[3]", "result": 10, "unit": "nM"}
    ]},
    {"smiles": "CN(C)[C@H]1Cc2ccccc2[C@H](c2cccc(C(F)(F)F)c2)C1", "values": [
      {"measurement": "Ki", "setting": "[1]", "result": 1300, "unit": "nM"},
      {"measurement": "Ki", "setting": "[2]", "result": 200, "unit": "nM"},
      {"measurement": "Ki", "setting": "[3]", "result": 230, "unit": "nM"}
    ]},
    {"smiles": "CN(C)[C@@H]1Cc2ccccc2[C@@H](c2cccc(Br)c2)C1", "values": [
      {"measurement": "Ki", "setting": "[1]", "result": 20, "unit": "nM"},
      {"measurement": "Ki", "setting": "[2]", "result": 8, "unit": "nM"},
      {"measurement": "Ki", "setting": "[3]", "result": 4, "unit": "nM"}
    ]},
    {"smiles": "CN(C)[C@H]1Cc2ccccc2[C@H](c2cccc(Br)c2)C1", "values": [
      {"measurement": "Ki", "setting": "[1]", "result": 260, "unit": "nM"},
      {"measurement": "Ki", "setting": "[2]", "result": 40, "unit": "nM"},
      {"measurement": "Ki", "setting": "[3]", "result": 200, "unit": "nM"}
    ]},
    {"smiles": "CN(C)[C@@H]1Cc2ccccc2[C@@H](c2cccc(Cl)c2)C1", "values": [
      {"measurement": "Ki", "setting": "[1]", "result": "[…]"},
      {"measurement": "Ki", "setting": "[2]", "result": 30, "unit": "nM"},
      {"measurement": "Ki", "setting": "[3]", "result": "[…]"}
    ]},
    {"smiles": "CN(C)[C@H]1Cc2ccccc2[C@H](c2cccc(Cl)c2)C1", "values": [
      {"measurement": "Ki", "setting": "[1]", "result": "[…]"},
      {"measurement": "Ki", "setting": "[2]", "result": 50, "unit": "nM"},
      {"measurement": "Ki", "setting": "[3]", "result": "[…]"}
    ]},
    {"smiles": "CN(C)[C@@H]1Cc2ccccc2[C@@H](c2cccc(F)c2)C1", "values": [
      {"measurement": "Ki", "setting": "[2]", "result": 70, "unit": "nM"},
      {"measurement": "Ki", "setting": "[3]", "result": 43, "unit": "nM"}
    ]},
    {"smiles": "CN(C)[C@H]1Cc2ccccc2[C@H](c2cccc(F)c2)C1", "values": [
      {"measurement": "Ki", "setting": "[2]", "result": 110, "unit": "nM"},
      {"measurement": "Ki", "setting": "[3]", "result": 200, "unit": "nM"}
    ]},
    {"smiles": "CN(C)[C@H]1Cc2ccccc2[C@H](c2ccccc2)C1", "values": [
      {"measurement": "Ki", "setting": "[1]", "result": 470, "unit": "nM"},
      {"measurement": "Ki", "setting": "[2]", "result": 240, "unit": "nM"}
    ]},
    {"smiles": "CN(C)[C@@H]1Cc2ccccc2[C@@H](C2CCCCCCC2)C1", "values": [
      {"measurement": "Ki", "setting": "[2]", "result": 10, "unit": "nM"}
    ]},
    {"smiles": "CN(C)[C@H]1Cc2ccccc2[C@H](c2cccc(-c3ccccc3)c2)C1", "values": [
      {"measurement": "Ki", "setting": "[2]", "result": 200, "unit": "nM"},
      {"measurement": "Ki", "setting": "[3]", "result": 1000, "unit": "nM"}
    ]},
    {"smiles": "CN(C)[C@@H]1Cc2ccccc2[C@@H](c2cccc(-c3ccccc3)c2)C1", "values": [
      {"measurement": "Ki", "setting": "[2]", "result": 73, "unit": "nM"},
      {"measurement": "Ki", "setting": "[3]", "result": 5, "unit": "nM"}
    ]},
    {"smiles": "CN(C)[C@H]1Cc2ccccc2[C@H](c2ccccc2Cl)C1", "values": [
      {"measurement": "Ki", "setting": "[1]", "result": 2800, "unit": "nM"},
      {"measurement": "Ki", "setting": "[2]", "result": 710, "unit": "nM"},
      {"measurement": "Ki", "setting": "[3]", "result": 50, "unit": "nM"}
    ]},
    {"smiles": "CN(C)[C@@H]1Cc2ccccc2[C@@H](c2ccccc2Cl)C1", "values": [
      {"measurement": "Ki", "setting": "[1]", "result": 2400, "unit": "nM"},
      {"measurement": "Ki", "setting": "[2]", "result": 300, "unit": "nM"},
      {"measurement": "Ki", "setting": "[3]", "result": 290, "unit": "nM"}
    ]},
    {"smiles": "Cc1ccccc1[C@@H]1C[C@@H](N(C)C)Cc2ccccc21", "values": [
      {"measurement": "Ki", "setting": "[1]", "result": 700, "unit": "nM"},
      {"measurement": "Ki", "setting": "[2]", "result": 6000, "unit": "nM"},
      {"measurement": "Ki", "setting": "[3]", "result": 2000, "unit": "nM"}
    ]},
    {"smiles": "Cc1ccccc1[C@H]1C[C@H](N(C)C)Cc2ccccc21", "values": [
      {"measurement": "Ki", "setting": "[1]", "result": 1000, "unit": "nM"},
      {"measurement": "Ki", "setting": "[2]", "result": 800, "unit": "nM"},
      {"measurement": "Ki", "setting": "[3]", "result": 1600, "unit": "nM"}
    ]}
  ]
}
